Test results reported in patent US6040149A, “Assay for identifying agents which act on the ceramide-activated protein kinase, kinase suppressor of ras, and methods of using said agents” (priority 1997, dated 2000).

Key:
Raf-1 [1] = assay: Raf-1 activity after co-expression with KSR in COS-7 cells; assay type: cell-based, human (Raf-1 expressed in COS-7 cells)
Description: Some studies used untagged KSR (n=4) and yielded identical results. At 60 hours post-transfection, cells were lysed with RIPA buffer (NP-40 buffer containing 0.1% SDS and 0.1% deoxy cholate). […] […]. The samples were boiled for 5 min, resolved with SDS-PAGE (7.5%) and autoradiographed.
[…]. After 30 min, the reaction was stopped by addition of Laemmli sample buffer and phosphorylated MBP were resolved by 15% SDS-PAGE, prior to autoradiography.
; a kind gift of Dr. Natalie Ahn) or 1.25 μg recombinant human MEK1 (Santa Cruz), 0.625 μg recombinant human ERK1 (UBI) and myelin basic protein (MBP). After 20-30 min, the reaction was stopped by addition of SDS sample buffer. […]

[2] = test system: ceramide-activated protein kinase; settings: ceramide 0.001 to 3 μM, of the control, ref. [40]; cited from earlier work
[3] = test system: ceramide-activated protein kinase; settings: treatment of intact cells; literature; cited from earlier work
Raf-1 [4] = assay: Kinase activity of immunoprecipitated Raf-1 toward MEK1 after HL-60 cell stimulation; assay type: cell-based, human (HL-60 cells)
Description: Recovery of MEK1 was monitored by western blot (Bottom Panel). Identical results were obtained with cells stimulated for 5 min with TNF.
Recovery of MEK1 was monitored by western blot (Bottom Panel).
These studies indicate that Raf-1 is a component of the sphingomyelin pathway mediating TNF action.
MEK1 autophosphorylation was for 45 min. An autoradiogram of MEK1 phosphorylation (top panel) and recovery of MEK1 protein by western blot (bottom panel) are shown. For western blot, proteins separated by SDS-PAGE were electrotransferred to an Immobilon PVDF membrane at 12 volts overnight at 4° C. Membranes were then blocked with 2% BSA in TBS [20 mM Tris, pH 7.6, 137 mM NaCl] for 1 hr and washed with TBST (TBS containing 0.2% Tween-20).

[5] = test system: ceramide-activated protein kinase; assay: EGFR peptide phosphorylation by kinase in A-431 microsomal membranes / postnuclear supernatant; assay type: biochemical, human (A-431 epidermoid carcinoma cells)
Description: Kinetics of ^32 Pi incorporation into the EGFR peptide. […] The reaction was initiated by addition of 50 μl of [γ-^32 P]ATP (150 μM final concentration) and terminated by addition of 50 μl of 0.5 M ATP in 90% (vol/vol) formic acid. Samples were spotted on phosphocellulose paper, washed with 1 M acetic acid/4 mM pyrophosphate, and ^32 P incorporation was measured by liquid-scintillation counting, as described. A boiled protein blank was subtracted from each data value. The data (means) represent duplicate samples from one of two similar experiments. […]
Kinetics of ceramide-induced ^32 Pi incorporation into EGFR peptide. Peptide phosphorylation was done as described in FIG. 2 in the absence (.smallcircle.) or presence (.circle-solid.) of 0.5 μM C8 -ceramide. Phosphorylated peptide was resolved by HPLC. Values (means) represent data from three experiments.
Concentration-dependence of ceramide-induced ^32 Pi incorporation into EGFR peptide. Peptide phosphorylation reactions were done as described for FIG. 2, for 2 minutes, using various concentrations of ceramide (0.001-3 μM). Phosphorylated peptide was resolved by HPLC. Values (means) represent data from three experiments. […]
Phosphorylation was initiated at 22° C. by addition of 50 μl of [γ-^32 P] ATP (150 μM final concentration; 4000 dpm/pmol). For studies with lipid activators, ceramide and other lipids were dried under N2 and resuspended in the kinase assay buffer by bath sonication for 2 minutes at 37° C.
Phosphorylated peptide was quantified by two separate methods. For initial studies, samples were spotted on phosphocellulose paper, washed in 1 M acetic acid/4 mM pyrophosphate and subjected to liquid scintillation counting, according to methods well known to those skilled in the art. Values obtained from a boiled blank or a sample lacking peptide were subtracted from each determination. Alternatively, HPLC was done according to methods well known to those skilled in the art. For these studies, samples were first applied to a C18 Sep-Pak cartridge and eluted with 99.9% acetonitrile/0.1% trifluoroacetic acid. The eluates were lyophilized, resuspended in 6 M guanidine hydrochloride/200 mM Tris, pH 8.5 and applied to a C18 reverse-phase column (Dynamax, 4.6 mm i.d., Rainin, Woburn, Mass.). The peptide was eluted with a linear gradient (1% per minute) of acetonitrile at a flow rate of 1 ml/minute and was detected by measuring the Cerenkov radiation associated with 1-ml fractions.

[6] = test system: ceramide-activated protein kinase; assay: Ceramide-activated protein kinase activity (EGFR peptide) in EL-4 cell fractions; settings: 10 nM to 1 μM
Description: Effect of IL-1β on ceramide-activated protein kinase activity. […] Homogenates were centrifuged at 500×g for 5 minutes to remove nuclei and at 200,000×g for 30 minutes to prepare microsomal membranes. Membranes were resuspended into homogenizing buffer (2.2 μg membrane protein μl^-1). For assay of kinase activity, the reaction mixture contained 20 μl of microsomal membrane, 40 μl EGFR peptide (4 mg ml^-1 in 25 mM Hepes, pH 7.4) and 100 μl buffer (50 mM HEPES, pH 7.4, 20 mM MgCl2). Phosphorylation was initiated at 22° C. by addition of 40 μl [γ-^32 P] ATP (100 μM final concentration) and terminated at the indicated times by addition of 40 μl of 0.5 M ATP in 90% formic acid. Phosphorylated peptide was eluted from a C18 Sep pak cartridge (Millipore), lyophilized, and resolved by C18 reverse phase HPLC using a linear gradient of acetonitrile. […] All assays were performed under conditions determined as linear for time and enzyme concentration. Enzyme activity was determined from the percent conversion of substrate to product and the specific radioactivity of [γ-^32 P] ATP. […] Values (mean±range) represent duplicate determinations from two experiments.
Activity was measured by the transfer of ^32 P from the γ-position of ATP to EGFR peptide (AA 663-681 of the EGFR). The effect of IL-1β on kinase activity was determined using microsomal membranes derived from cells stimulated with IL-1β.

Raf-1 [7] = assay: Activation of Raf-1 by KSR in vitro (MEK1 phosphorylation)
Raf-1 [8] = assay: Raf-1 phosphorylation in intact HL-60 cells; assay type: cell-based, human (HL-60 cells); settings: TNF 1 nM; ceramide; sphingomyelinase 10 mU/ml
Description: To examine this possibility, intact HL-60 cells were metabolically labeled with ^32 P-orthophosphate for 4 hr followed by stimulation with TNF for the indicated times (FIG. 20A). […] Raf-1 proteins were resolved by SDS-PAGE and autoradiographed.
FIG. 20A--300×10^6 cells were resuspended at 37° C. in 15 ml of serum-free phosphate-free RPMI medium ([…]) containing 6 mCi ^32 P-orthophosphate. After […], cells were resuspended into the same buffer without radiolabel (5×10^7 /point) and stimulated with TNF (1 nM). At the indicated times, ice-cold serum-free phosphate-free RPMI was added and cells were homogenized as described in FIG. 17 in RIPA lysis buffer. Cell debris was removed by centrifugation at 700×g for 5 min. […] After SDS-PAGE, Raf-1 was transferred to an Immobilon PVDF (Millipore) membrane according to the vendor's instructions. […] The data (CPM/Raf protein) are presented as fold of control and represent one of three studies performed in triplicate.

Substance | Raf-1 activation in COS-7 cells co-expressing KSR (Raf-1 [1]) | maximum enhancement of kinase activity [2] | enhancement of CAP kinase autophosphorylation / activity [3] | effect on kinase activity of Raf-1 toward MEK1 (Raf-1 [4]) | duration of stimulation ([5]; 0.5 μM ceramide) | onset of stimulation of EGFR peptide phosphorylation ([5]; 0.5 μM ceramide) | increase in kinase activity ([5]; 0.5 μM ceramide, by 30 s) | lowest effective concentration ([5]; 2 minutes of stimulation) | EGFR peptide phosphorylation, fold of control ([5]; 2 minutes of stimulation, maximal effect for ceramide at 1 μM) | EC50 ([5]; 2 minutes of stimulation, read-out: ED50 for EGFR peptide phosphorylation) | concentration inducing maximal phosphorylation ([5]; EGFR peptide phosphorylation) | lowest effective concentration ([5]; EGFR peptide phosphorylation, A-431) | effect on EGFR peptide phosphorylation ([5]; words) | enhancement of kinase activity, of control [6] | KSR-dependent Raf-1 activity toward MEK1 in vitro (Raf-1 [7]) | activation of Raf-1 by ceramide in the absence of KSR (Raf-1 [7]) | Raf-1 phosphorylation in intact HL-60 cells (Raf-1 [8])
Raf-1(T268V) | as effectively as wild type Raf-1 | – | – | – | – | – | – | – | – | – | – | – | – | – | – | – | –
Raf-1(T269V) | not activated | – | – | – | – | – | – | – | – | – | – | – | – | – | – | – | –
ceramide | – | two-fold | 5-10 fold | similarly enhanced activity toward MEK1 | at least 15 minutes | ≤ 30 s | 2 fold | 1 nM | 2.1 fold of control | ~0.03 µM | 1 µM | 1 nM | similarly effective | 1.5-2.5 of control | markedly enhanced | not stimulated | similarly induced Raf-1 phosphorylation
